Test results: patent publication US20260207702A1, “USE OF AVPR1A AGONISTS” (Viage Therapeutics Inc., priority 2022, published 2026)
Where a SMILES comes first, the peptide text is derived from it. Bridges are numbered along the chain shown (N, C = ends).

Columns and labels:
[1] = test system: healthy subjects; details: in vivo
Protocol: A Phase 1a/1b, randomized, placebo-controlled, crossover study with the peptide [sequence] (SEQ ID NO: 1) in healthy subjects was performed. The study population included men and women in good general health.
A single ascending dose (SAD) group included four cohorts receiving 60 mg/day (cohorts SAD1 and SAD2), 180 mg/day (cohort SAD3), or 540 mg/day (cohort SAD4) of the peptide or placebo. […] All doses were administered orally. […] Seven days after the end of dosing, this group was then switched to receiving placebo once a day for seven days, followed by another 24-hour period of sleep deprivation. then crossing to 540 mg of peptide once a day for 7 days. In another group (n=7, with one participant withdrawing after initiation for personal reasons), the inverse dose regimen was used, with participants starting with placebo and the crossing over to 540 mg of peptide once a day.

[2] = test system: mouse; assay: Tail suspension test (TST) with vasopressin receptor inhibitors (Example 1); format: in vivo
Text: NO: 1) is either AVPR1A or AVPR2 (FIGS. 1-2).

[3] = test system: mouse; assay: Mouse tail suspension test with felypressin (Example 5); format: in vivo
Protocol: The effect of orally administered felypressin, a selective AVPR1A agonist, on antidepressant activity in the mouse tail suspension test was evaluated. Felypressin at 0.03 mg/kg, 0.1 mg/kg, and 0.3 mg/kg was compared to the peptide […] (SEQ ID NO: 1) at 0.3 mg/kg (n=6 per group). The effect of orally administered felypressin (0.1 mg/kg) was also compared to the effect of orally administered felypressin (0.1 mg/kg) plus the AVPR1A/AVPR2 inhibitor conivaptan (3 mg/kg) (n=7 per group).

[4] = test system: mouse; assay: Mouse tail suspension test with desmopressin (Example 6); format: in vivo; details: oral desmopressin 0.03, 0.1, 0.3, 1.0 mg/kg vs felypressin 0.1 mg/kg
Protocol: Desmopressin at 0.03 mg/kg, 0.1 mg/kg, and 0.3 mg/kg was compared to felypressin at 0.1 mg/kg (n=6 per group) in a first study. Desmopressin at 0.1 mg/kg, 0.3 mg/kg, and 1.0 mg/kg was compared to felypressin at 0.1 mg/kg (n=6 per group) in a first study.

CC(C)C[C@H](N)C(=O)N[C@@H](CO)C(=O)N[C@@H](CO)C(=O)N[C@H](C(=O)N[C@@H](CCC(N)=O)C(=O)N[C@@H](C)C(=O)N[C@@H](CCC(N)=O)C(=O)N[C@@H](CCC(N)=O)C(=O)N[C@@H](CO)C(=O)N[C@@H](Cc1ccc(O)cc1)C(=O)O)[C@@H](C)O [LSSTQAQQSY (SEQ ID NO: 1), LSSTQAQQSY] (H-LSSTQAQQSY-OH; N-terminus and C-terminus assumed)
Vital signs, electrocardiography (ECG) data, and physical examinations [1]: normal

Cc1nc2c([nH]1)-c1ccccc1N(C(=O)c1ccc(NC(=O)c3ccccc3-c3ccccc3)cc1)CC2 [conivaptan]
Blocking of LSSTQAQQSY (SEQ ID NO: 1) activity in a tail suspension test (reduced TST immobility) ([2]; low doses of inhibitor): blocks | Blocking of LSSTQAQQSY (SEQ ID NO: 1) activity in a tail suspension test (reduced TST immobility) ([2]; mouse, in vivo): blocks | Blocking of felypressin activity in the tail suspension test ([3]; oral felypressin 0.1 mg/kg plus conivaptan 3 mg/kg): blocks

NC(=O)CC[C@@H]1NC(=O)[C@H](Cc2ccccc2)NC(=O)[C@H](Cc2ccc(O)cc2)NC(=O)CCSSC[C@@H](C(=O)N2CCC[C@H]2C(=O)N[C@H](CCCN=C(N)N)C(=O)NCC(N)=O)NC(=O)[C@H](CC(N)=O)NC1=O [desmopressin, 1-desamino-8-D-arginyl vasopressin]
Antidepressant activity in the mouse tail suspension test, compared to felypressin [4]: less of an effect than felypressin

NCCCC[C@H](NC(=O)[C@@H]1CCCN1C(=O)[C@@H]1CSSC[C@H](N)C(=O)N[C@@H](Cc2ccccc2)C(=O)N[C@@H](Cc2ccccc2)C(=O)N[C@@H](CCC(N)=O)C(=O)N[C@@H](CC(N)=O)C(=O)N1)C(=O)NCC(N)=O [felypressin] (H-CFFQNCPKG-NH2; disulfide 1-6)
Antidepressant activity in the mouse tail suspension test ([3]; orally administered, 0.03, 0.1 and 0.3 mg/kg): induces an antidepressant effect

COc1ccc(S(=O)(=O)N2C(=O)[C@@](c3ccccc3OC)(N3C[C@H](O)C[C@H]3C(=O)N(C)C)c3cc(Cl)ccc32)c(OC)c1 [nelivaptan]
Blocking of LSSTQAQQSY (SEQ ID NO: 1) activity in a tail suspension test (reduced TST immobility) ([2]; mouse, in vivo): blocks

Cc1ccccc1C(=O)Nc1ccc(C(=O)N2CCCC(O)c3cc(Cl)ccc32)c(C)c1 (centres unmarked) [tolvaptan]
Blocking of LSSTQAQQSY (SEQ ID NO: 1) activity in a tail suspension test (reduced TST immobility) ([2]; mouse, in vivo): does not block
